In patent EP3628672A1 (priority 2018, dated 2020):

Key:
[1] = biological target: T1, purified LasB protein from P. aeruginosa (Pseudomonas aeruginosa, UniProt P14756); assay: Fluorometric assay to determine Ki (Abz-Ala-Gly-Leu-Ala-p-Nitro-Benzyl-Amide substrate); assay type: biochemical
T1 construct: purchased Merck or Charles River Laboratories
How it was run: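 Purified P. aeruginosa LasB (10–140 ng/ml) with 250 µM Abz-Ala-Gly-Leu-Ala-p-nitrobenzylamide in 50 mM Tris-HCl pH 7.4, 2.5 mM CaCl2, 0.01% Triton X100, 37 °C; hydrolysis fluorescence (Ex 340/Em 415 nm) followed over 30 min, inhibitor 0.0016–200 µM. Ki = IC50/(1+[S]/Km), Km 214 µM.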

LasB = biological target: T2, LasB (Pseudomonas aeruginosa, UniProt P14756); assay: Elastin assay to determine % inhibition (Elastin Congo-Red, dialysed culture supernatant); assay type: biochemical, P. aeruginosa PAO1; details: read-out: Elastin hydrolysis % inhibition @ 50 / 25 µM inhibitor concentration
T2 construct: uses as source of enzyme dialysed supernatant from P. aeruginosa PAO1; endogenous in cells; host or cells: P. aeruginosa PAO1 culture supernatant, filtered and dialysed
How it was run: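 Enzyme source was dialysed PAO1 culture supernatant (50 mM Tris-HCl pH 7.4, 2.5 mM CaCl2), mixed with Elastin Congo-Red and 0.01% Triton X-100. Compound was routinely 50 to 1.56 µM, incubated overnight at 37 °C with shaking. Dye release at OD495 gave % inhibition relative to DMSO and no-enzyme controls.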

CFBE = assay: Cellular model: IL-6 content (ELISA) in lung epithelial cells treated with PAO1 supernatant; assay type: cell-based, human; details: PAO1 supernatant pre-incubated with compound 1h at 37°C, 6h incubation
Source text: (§1) These degradations are beneficial for P. aeruginosa pathogenesis by inhibiting antimicrobial peptide while impairing lung function of the host by promoting lung damage and inhibiting epithelial cell repair. In mice, intranasally instillated LasB induced significant inflammation, injury and death. […] Our compounds are therefore been tested in cellular models to define inhibitory effect of our series on LasB deleterious effect on human lung epithelial cell models (NCI-H292 and CFBE). Supernatants from PAO1 wild type and lasB mutant (PAO1ΔlasB) are pre-incubated with Example 1 at 10 times the final concentrations for 1h at 37°C. Then, supernatants are added to cell lines. After 6h incubation, cell culture supernatants are recovered, IL-6 and Trappin-2 contents are analysed by ELISA method. A Student t-Test is performed to assess the statistical significance between conditions (p < 0.05, *). NCI-H292 and CFBE cells express respectively Trappin-2 and IL-6. Whether treatment with culture supernatant from PAO1ΔlasB induces an overexpression of both immune factors, the treatment with PAO1 supernatant lead to strong reduction of IL-6 and Trappin-2 detected. LasB, hydrolyzing IL-6 and Trappin-2, hijacks the immune response against PA. […] By restoring immune response and secretion of IL-6 and Trappin-2, Example 1 and related LasB inhibitors may restore eradication of PA by the immune system.

NCI-H292 = assay: Cellular model: Trappin-2 content (ELISA) in lung epithelial cells treated with PAO1 supernatant; assay type: cell-based, human; details: PAO1 supernatant pre-incubated with compound 1h at 37°C, 6h incubation
Source text: as §1

T2 sequence (P14756 198-498): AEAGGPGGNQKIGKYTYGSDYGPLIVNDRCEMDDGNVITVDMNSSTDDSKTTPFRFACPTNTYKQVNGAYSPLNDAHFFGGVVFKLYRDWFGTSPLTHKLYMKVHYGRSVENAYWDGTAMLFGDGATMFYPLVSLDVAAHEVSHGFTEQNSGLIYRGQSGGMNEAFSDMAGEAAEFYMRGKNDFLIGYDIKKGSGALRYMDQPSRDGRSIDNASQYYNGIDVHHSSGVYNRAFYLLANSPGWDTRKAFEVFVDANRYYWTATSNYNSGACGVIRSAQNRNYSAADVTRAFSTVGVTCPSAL
T1 sequence (P14756 198-498): as above

| Compound | Ki [1] [nM] | inhibition at 25 µM (LasB) [%] | level of IL-6 (CFBE) | level of Trappin-2 (NCI-H292) |
| --- | --- | --- | --- | --- |
| O=C(O)CC1(C(=O)NCc2nc(-c3ccccc3)cs2)Cc2ccccc2C1 [Example 1, 2-[2-[(4-phenylthiazol-2-yl)methylcarbamoyl]indan-2-yl]acetic acid] | 50 to 200 | > 75 | restored in a dose response maneer level of both Trappin-2 and IL-6 similar to the control | restored in a dose response maneer level of both Trappin-2 and IL-6 similar to the control |
| CN(C)C1CCN(S(=O)(=O)c2cc(-c3csc(CNC(=O)C4(CC(=O)O)Cc5cc(F)c(F)cc5C4)n3)ccc2OCCCN2CCCC2)CC1 [Example 139, 2-[2-[[4-[3-[[4-(dimethylamino)-1-piperidyl]sulfonyl]-4-(3-pyrrolidin-1-ylpropoxy)phenyl]thiazol-2-yl]methylcarbamoyl]-5,6-difluoro-indan-2-yl]acetic acid] | 50 to 200 | 10 to 60 |  |  |
| C[N+]1(CCc2ccc(-c3csc(CNC(=O)C4(CC(=O)[O-])Cc5ccccc5C4)n3)cn2)CCOCC1 [Example 141, 2-[2-[[4-[6-[2-(4-methylmorpholin-4-ium-4-yl)ethyl]-3-pyridyl]thiazol-2-yl]methylcarbamoyl]indan-2-yl]acetate] | 50 to 200 | 60 to 75 |  |  |
| O=C(O)CC1(C(=O)NCc2nc(-c3ccc(OCc4ccncc4)nc3)cs2)Cc2ccccc2C1 [Example 142, 2-[2-[[4-[6-(4-pyridylmethoxy)-3-pyridyl]thiazol-2-yl]methylcarbamoyl]indan-2-yl]acetic acid] | < 50 | > 75 |  |  |
| C[n+]1ccc(COc2ccc(-c3csc(CNC(=O)C4(CC(=O)[O-])Cc5ccccc5C4)n3)cn2)cc1 [Example 143, 2-[2-[[4-[6-[(1-methylpyridin-1-ium-4-yl)methoxy]-3-pyridyl]thiazol-2-yl]methylcarbamoyl]indan-2-yl]acetate] | 50 to 200 | 10 to 60 |  |  |
| O=C(O)CC1(C(=O)NCc2nc(-c3ccccc3OC(F)(F)F)cs2)Cc2ccccc2C1 [Example 145, 2-[2-[[4-[2-(trifluoromethoxy)phenyl]thiazol-2-yl]methylcarbamoyl]indan-2-yl]acetic acid] | 50 to 200 | 60 to 75 |  |  |
| COc1ccccc1-c1csc(CNC(=O)C2(CC(=O)O)Cc3ccccc3C2)n1 [Example 146, 2-[2-[[4-(2-methoxyphenyl)thiazol-2-yl]methylcarbamoyl]indan-2-yl]acetic acid] | 50 to 200 | 60 to 75 |  |  |
| CCc1ccccc1-c1csc(CNC(=O)C2(CC(=O)O)Cc3ccccc3C2)n1 [Example 147, 2-[2-[[4-(2-ethylphenyl)thiazol-2-yl]methylcarbamoyl]indan-2-yl]acetic acid] | 50 to 200 | 60 to 75 |  |  |
| O=C(O)CC1(C(=O)NCc2nc(-c3ccccc3CO)cs2)Cc2ccccc2C1 [Example 148, 2-[2-[[4-[2-(hydroxymethyl)phenyl]thiazol-2-yl]methylcarbamoyl]indan-2-yl]acetic acid] | 50 to 200 | 60 to 75 |  |  |
